Results taken from PMC12184311 (2025).

Assays:
[1] = system: 3WJ (DNA, junction) CGGAACGGCACTCG/CGAGTGCAGCGTGG/CCACGCTCGTTCCG; test: PAGE; conditions: Na+ 50 mM (NaCl), 1X TB, 37 °C 1 h incubation
[2] = system: 4WJ-18 (DNA, junction) GCTAGCTGATACGCTACG/CGTAGCGTACGTTGGTGC/GCACCAACGCGTCACTCC/GGAGTGACGTCAGCTAGC; test: PAGE; conditions: Na+ 50 mM (NaCl); 1X TB, 37 °C 1 h incubation; 0.25 to 5 equiv; compound induces junction assembly
[3] = system: 4WJ-22 (DNA, junction) GCCTAGCATGATACTGCTACCG/CGGTAGCAGTACCGTTGGTGGC/GCCACCAACGGCGTCAACTGCC/GGCAGTTGACGTCATGCTAGGC; test: PAGE gel shift; conditions: Na+ 50 mM (NaCl); 1X TB
[4] = system: FAM-labelled 4WJ-18 (DNA, junction) GCTAGCTGATACGCTACG/CGTAGCGTACGTTGGTGC/GCACCAACGCGTCACTCC/GGAGTGACGTCAGCTAGC; test: PAGE competition, FAM fluorescence; conditions: Na+ 50 mM (NaCl); 1X TB, 37 °C 1 h; 1 equivalent Pt-BIMA; competitor unlabelled 4WJ-18, Y fork, dsDNA, 3WJ

Row | SMILES | binding ([1]; control lane) | binding ([1]; 0.25 to 5 equiv) | binding [2] | binding [3] | binding [4]
1 | C(=Nc1ccc(Cc2ccc(N=Cc3ccccn3)cc2)cc1)c1ccccn1.C(=Nc1ccc(Cc2ccc(N=Cc3ccccn3)cc2)cc1)c1ccccn1.C(=Nc1ccc(Cc2ccc(N=Cc3ccccn3)cc2)cc1)c1ccccn1.[Ni+2].[Ni+2] | yes |  |  |  | 
2 | [Pd+2].[Pd+2].c1ccc2c(c1)ncn2Cc1c2ccccc2c(Cn2cnc3ccccc32)c2ccccc12.c1ccc2c(c1)ncn2Cc1c2ccccc2c(Cn2cnc3ccccc32)c2ccccc12.c1ccc2c(c1)ncn2Cc1c2ccccc2c(Cn2cnc3ccccc32)c2ccccc12.c1ccc2c(c1)ncn2Cc1c2ccccc2c(Cn2cnc3ccccc32)c2ccccc12 |  | yes | yes |  | 
3 | [Pt+2].[Pt+2].c1ccc2c(c1)ncn2Cc1c2ccccc2c(Cn2cnc3ccccc32)c2ccccc12.c1ccc2c(c1)ncn2Cc1c2ccccc2c(Cn2cnc3ccccc32)c2ccccc12.c1ccc2c(c1)ncn2Cc1c2ccccc2c(Cn2cnc3ccccc32)c2ccccc12.c1ccc2c(c1)ncn2Cc1c2ccccc2c(Cn2cnc3ccccc32)c2ccccc12 |  | yes | yes | yes | yes
